In DBAASP:
In brackets after ≈: the same amount, converted by molar mass.

Legend:
Experiment in all cases: ≥ marks a high value that may be exact or a test limit, other limits are often not marked, values filed in µg/mL are converted to µM
Acinetobacter baumannii = test system: Acinetobacter baumannii
Enterococcus faecalis = test system: Enterococcus faecalis
Enterococcus faecium = test system: Enterococcus faecium
Escherichia coli = test system: Escherichia coli
Klebsiella pneumoniae = test system: Klebsiella pneumoniae
Pseudomonas aeruginosa = test system: Pseudomonas aeruginosa
Serratia marcescens = test system: Serratia marcescens
Staphylococcus aureus MR = test system: Staphylococcus aureus MR
Staphylococcus aureus = test system: Staphylococcus aureus
[1] = test system: Stenotrophomonas maltophilia
Streptococcus pneumoniae = test system: Streptococcus pneumoniae
[2] = test system: Candida albicans ATCC 90028
[3] = test system: Escherichia coli ATCC 25726
[4] = test system: Klebsiella pneumoniae ATCC 700603
[5] = test system: Proteus mirabilis ATCC 25933
[6] = test system: Pseudomonas aeruginosa ATCC 27853
[7] = test system: Staphylococcus aureus ATCC 25923
[8] = test system: Staphylococcus aureus ATCC 29213
[9] = test system: Staphylococcus epidermidis RP62A/1
[10] = test system: Staphylococcus epidermidis RP62A
[11] = test system: Bacillus subtilis ATCC 62037
[12] = test system: Candida albicans ATCC 10231
[13] = test system: Cryptococcus neoformans ATCC 34881
[14] = test system: Escherichia coli ATCC 27325
[15] = test system: Pseudomonas putida ATCC 17426
[16] = test system: Saccharomyces cerevisiae ATCC 44774
[17] = test system: Salmonella enterica subsp. enterica serovar Enteritidis ATCC 13076
[18] = test system: Staphylococcus aureus ATCC 15752
[19] = test system: Streptococcus mutans ATCC 25175
[20] = test system: Corynebacterium xerosis C875
Escherichia coli DC2 = test system: Escherichia coli DC2
Escherichia coli UB1005 = test system: Escherichia coli UB1005
[21] = test system: Staphylococcus epidermidis C621
Bacillus anthracis = test system: Bacillus anthracis
Bacillus cereus = test system: Bacillus cereus

With `CC[C@H](C)[C@H](NC(=O)[C@@H](NC(=O)[C@H](CCCCN)NC(=O)[C@H](CS)NC(=O)[C@H](CCCCN)NC(=O)[C@H](CCCN=C(N)N)NC(=O)[C@H](CC(C)C)NC(=O)[C@@H](NC(=O)[C@H](CCCCN)NC(=O)[C@@H](NC(=O)[C@H](CC(C)C)NC(=O)[C@H](C)NC(=O)[C@@H](NC(=O)[C@H](Cc1ccccc1)NC(=O)CNC(=O)[C@@H]1CCCN1C(=O)[C@@H]1CCCN1C(=O)[C@@H](NC(=O)[C@H](CCC(=O)O)NC(=O)[C@H](CCCN=C(N)N)NC(=O)[C@H](CC(N)=O)NC(=O)[C@@H](N)CCC(=O)O)C(C)C)[C@@H](C)O)[C@@H](C)CC)[C@@H](C)O)[C@@H](C)CC)C(=O)O` [ENREVPPGFTALIKTLRKCKII] as the compound, how does the MIC (Acinetobacter baumannii) read?
Its MIC is 12.7 µM (≈ 32 µg/mL).

What about the MIC (Enterococcus faecalis) of the same compound?
Its MIC is 4.47 µM (≈ 11.3 µg/mL).

And the MIC (Enterococcus faecium)?
Its MIC is 12.7 µM (≈ 32 µg/mL).

And the MIC (Escherichia coli)?
Its MIC is 3.16 µM (≈ 7.99 µg/mL).

And the MIC (Klebsiella pneumoniae)?
Its MIC is 4.47 µM (≈ 11.3 µg/mL).

What about the MIC (Pseudomonas aeruginosa) of the same compound?
Its MIC is 12.7 µM (≈ 32 µg/mL).

What about the MIC (Serratia marcescens) of the same compound?
Its MIC is 8.95 µM (≈ 22.6 µg/mL).

What about the MIC (Staphylococcus aureus MR) of the same compound?
The MIC was 4.47 µM (≈ 11.3 µg/mL).

And the MIC (Staphylococcus aureus)?
The MIC was 4.47 µM (≈ 11.3 µg/mL).

And the MIC [1]?
The MIC was 12.7 µM (≈ 32 µg/mL).

And the MIC (Streptococcus pneumoniae)?
Its MIC is 4.47 µM (≈ 11.3 µg/mL).

What does the source list for `CC[C@H](C)[C@H](N)C(=O)N[C@@H](CCCCN)C(=O)N[C@@H](CC(C)C)C(=O)N[C@@H](CO)C(=O)N[C@@H](CCCCN)C(=O)N[C@@H](CCCCN)C(=O)N[C@H](C(=O)N[C@@H](CCCCN)C(=O)N[C@@H](CC(=O)O)C(=O)N[C@@H](CC(N)=O)C(=O)N[C@@H](CC(C)C)C(=O)N[C@@H](CCCCN)C(=O)N[C@@H](CCCCN)C(=O)N[C@H](C(=O)N[C@@H](CC(C)C)C(=O)N[C@@H](CCCCN)C(=O)NCC(=O)N[C@@H](C)C(=O)N[C@H](C(=O)N[C@@H](CCCCN)C(=O)NCC(=O)N[C@@H](C)C(=O)N[C@H](C(=O)N[C@@H](C)C(=O)N[C@H](C(=O)N[C@@H](C)C(=O)N[C@@H](CCCCN)C(=O)N[C@@H](CCSC)C(=O)N[C@H](C(N)=O)C(C)C)C(C)C)[C@@H](C)CC)[C@@H](C)CC)C(C)C)[C@@H](C)O` [IKLSKKTKDNLKKVLKGAIKGAIAVAKMV]?
MIC (Acinetobacter baumannii): 3.1 µM (≈ 9.59 µg/mL); MIC [2]: ≥ 100 µM; MIC [3]: 3.1 µM (≈ 9.59 µg/mL); MIC [4]: 6.25 µM (≈ 19.3 µg/mL); MIC [5]: ≥ 100 µM; MIC [6]: 12.5 µM (≈ 38.7 µg/mL); MIC [7]: 3.1 µM (≈ 9.59 µg/mL); MIC [8]: 3.1 µM (≈ 9.59 µg/mL); MIC [9]: 0.8 µM (≈ 2.48 µg/mL); MIC [10]: 1.6 µM (≈ 4.95 µg/mL); MIC [1]: 1.6 µM (≈ 4.95 µg/mL)

`CC(C)[C@H](NC(=O)[C@H](CCCCN)NC(=O)CNC(=O)CNC(=O)[C@H](CCC(N)=O)NC(=O)[C@H](CCCCN)NC(=O)CNC(=O)[C@H](CCCN=C(N)N)NC(=O)CNC(=O)[C@@H](N)CCCCN)C(=O)N[C@@H](CCCN=C(N)N)C(=O)N[C@@H](C)C(=O)N[C@@H](CCCCN)C(=O)N[C@@H](C)C(=O)N[C@@H](CCCCN)C(=O)N[C@H](C(=O)N[C@@H](CCCN=C(N)N)C(=O)O)[C@@H](C)O` [KGRGKQGGKVRAKAKTR] was tested. Which MIC [11] did it give?
Its MIC is 0.548 µM (≈ 1 µg/mL).

What about the MIC [12] of the same compound?
Its MIC is 0.548 µM (≈ 1 µg/mL).

What about the MIC [13] of the same compound?
The MIC was 0.548 µM (≈ 1 µg/mL).

And the MIC [14]?
Its MIC is 0.548 µM (≈ 1 µg/mL).

And the MIC [15]?
The MIC was 0.548 µM (≈ 1 µg/mL).

What about the MIC [16] of the same compound?
The MIC was 0.548 µM (≈ 1 µg/mL).

And the MIC [17]?
The MIC was 2.19 µM (≈ 4 µg/mL).

What about the MIC [18] of the same compound?
Its MIC is 2.19 µM (≈ 4 µg/mL).

And the MIC [19]?
The MIC was 1.1 µM (≈ 2 µg/mL).

Which MIC [20] does the source give for `C[C@H](NC(=O)[C@H](C)NC(=O)[C@H](C)NC(=O)[C@H](Cc1c[nH]c2ccccc12)NC(=O)[C@H](C)NC(=O)[C@H](C)NC(=O)[C@H](C)NC(=O)[C@H](CCCCN)NC(=O)[C@@H](N)CCCCN)C(=O)N[C@@H](C)C(=O)N[C@@H](C)C(=O)N[C@@H](Cc1c[nH]c2ccccc12)C(=O)N[C@@H](C)C(=O)N[C@@H](C)C(=O)N[C@@H](Cc1c[nH]c2ccccc12)C(=O)N[C@@H](C)C(=O)N[C@@H](C)C(=O)N[C@@H](Cc1c[nH]c2ccccc12)C(=O)N[C@@H](C)C(=O)N[C@@H](C)C(=O)N[C@@H](C)C(=O)N[C@@H](CCCCN)C(=O)N[C@@H](CCCCN)C(=O)N[C@@H](CCCCN)C(=O)N[C@@H](CCCCN)C(N)=O` [KKAAAWAAAAAWAAWAAWAAAKKKK] here?
The MIC was 0.25 µM (≈ 0.649 µg/mL).

And the MIC (Escherichia coli DC2)?
Its MIC is 8 µM (≈ 20.8 µg/mL).

And the MIC (Escherichia coli UB1005)?
Its MIC is 16 µM (≈ 41.6 µg/mL).

And the MIC [21]?
Its MIC is 0.25 µM (≈ 0.649 µg/mL).

What does the source list for `CC[C@H](C)[C@H](NC(=O)[C@@H]1CCCN1C(=O)[C@H](Cc1c[nH]c2ccccc12)NC(=O)[C@H](CCC(N)=O)NC(=O)[C@H](CCCCN)NC(=O)[C@H](CC(C)C)NC(=O)[C@H](CC(C)C)NC(=O)[C@@H](N)CCCCN)C(=O)NCC(=O)N[C@@H](CCCCN)C(=O)N[C@@H](CC(C)C)C(=O)N[C@@H](CC(C)C)C(=O)N[C@@H](CCCCN)C(=O)N[C@@H](CCCCN)C(=O)N[C@@H](CC(C)C)C(=O)N[C@@H](CC(C)C)C(=O)N[C@@H](CCCCN)C(=O)N[C@@H](CCCCN)C(=O)N[C@@H](CC(C)C)C(=O)N[C@@H](CC(C)C)C(=O)N[C@@H](CCCCN)C(=O)O` [KLLKQWPIGKLLKKLLKKLLK]?
MIC [11]: 0.395 µM (≈ 1 µg/mL); MIC [12]: 0.395 µM (≈ 1 µg/mL); MIC [13]: 0.395 µM (≈ 1 µg/mL); MIC [14]: 0.198 µM (≈ 0.5 µg/mL); MIC [15]: 0.395 µM (≈ 1 µg/mL); MIC [16]: 0.395 µM (≈ 1 µg/mL); MIC [17]: 0.395 µM (≈ 1 µg/mL); MIC [18]: 0.198 µM (≈ 0.5 µg/mL); MIC [19]: 0.395 µM (≈ 1 µg/mL)

Which MIC (Bacillus anthracis) does the source give for `CC[C@H](C)[C@H](NC(=O)[C@H](CC(C)C)NC(=O)[C@H](C)NC(=O)[C@@H]1CCCN1C(=O)[C@H](C)NC(=O)[C@@H](NC(=O)[C@H](CCCCN)NC(=O)[C@@H](N)CCCN=C(N)N)C(C)C)C(=O)N[C@@H](CCCCN)C(=O)N[C@@H](CO)C(=O)N[C@@H](Cc1ccccc1)C(=O)N[C@H](C(=O)N[C@@H](Cc1ccccc1)C(=O)N[C@@H](CC(C)C)C(=O)N[C@@H](Cc1ccccc1)C(=O)N[C@@H](CCCCN)C(=O)N[C@@H](Cc1ccccc1)C(=O)N[C@@H](CCCCN)C(=O)N[C@@H](CCCCN)C(=O)NCC(=O)O)C(C)C` [RKVAPALIKSFVFLFKFKKG] here?
The MIC was no less than 110 µM.

What about the MIC (Bacillus cereus) of the same compound?
The MIC was no less than 110 µM.

And the MIC (Escherichia coli)?
The MIC was greater than 110 µM.

And the MIC (Staphylococcus aureus)?
Its MIC is 55.1 µM (≈ 128 µg/mL).

`CC(C)C[C@H](NC(=O)[C@H](C)NC(=O)[C@H](CO)NC(=O)[C@H](Cc1ccccc1)NC(=O)[C@@H](NC(=O)[C@H](CO)NC(=O)[C@@H]1CCCN1C(=O)[C@@H](NC(=O)[C@@H](NC(=O)[C@H](CCCCN)NC(=O)[C@H](CO)NC(=O)[C@H](C)NC(=O)[C@H](CC(C)C)NC(=O)[C@H](CCCCN)NC(=O)[C@H](Cc1ccccc1)NC(=O)[C@@H](NC(=O)[C@H](Cc1ccccc1)NC(=O)[C@@H](N)CO)C(C)C)C(C)C)C(C)C)C(C)C)C(=O)N[C@H](C(=O)N[C@@H](CCCN=C(N)N)C(=O)O)[C@@H](C)O` [SFVFKLASKVVPSVFSALTR] was tested. Which MIC (Bacillus anthracis) did it give?
The MIC was no less than 58.6 µM.

And the MIC (Bacillus cereus)?
The MIC was no less than 117 µM.

And the MIC (Escherichia coli)?
Its MIC is 117 µM.

What about the MIC (Staphylococcus aureus) of the same compound?
The MIC was 117 µM.
